Assay results from patent publication US9580413B2, “Substituted pyrrolidines as ROS tyrosine kinase inhibitors” (NIPPON SHINYAKU CO., LTD., priority 2012, dated 2017).
Counter-ions that a name gives are not always drawn.

How the values were obtained:
ROS tyrosine kinase = target: T1, ROS tyrosine kinase (Homo sapiens, UniProt P08922); experiment: ROS tyrosine kinase inhibitory activity test (ELISA); format: biochemical, humans; conditions: 25 μM ATP substrate solution, 30° C., one hour
T1 construct: purchased Carna Biosciences, Inc
T1 sequence (P08922 28-2347): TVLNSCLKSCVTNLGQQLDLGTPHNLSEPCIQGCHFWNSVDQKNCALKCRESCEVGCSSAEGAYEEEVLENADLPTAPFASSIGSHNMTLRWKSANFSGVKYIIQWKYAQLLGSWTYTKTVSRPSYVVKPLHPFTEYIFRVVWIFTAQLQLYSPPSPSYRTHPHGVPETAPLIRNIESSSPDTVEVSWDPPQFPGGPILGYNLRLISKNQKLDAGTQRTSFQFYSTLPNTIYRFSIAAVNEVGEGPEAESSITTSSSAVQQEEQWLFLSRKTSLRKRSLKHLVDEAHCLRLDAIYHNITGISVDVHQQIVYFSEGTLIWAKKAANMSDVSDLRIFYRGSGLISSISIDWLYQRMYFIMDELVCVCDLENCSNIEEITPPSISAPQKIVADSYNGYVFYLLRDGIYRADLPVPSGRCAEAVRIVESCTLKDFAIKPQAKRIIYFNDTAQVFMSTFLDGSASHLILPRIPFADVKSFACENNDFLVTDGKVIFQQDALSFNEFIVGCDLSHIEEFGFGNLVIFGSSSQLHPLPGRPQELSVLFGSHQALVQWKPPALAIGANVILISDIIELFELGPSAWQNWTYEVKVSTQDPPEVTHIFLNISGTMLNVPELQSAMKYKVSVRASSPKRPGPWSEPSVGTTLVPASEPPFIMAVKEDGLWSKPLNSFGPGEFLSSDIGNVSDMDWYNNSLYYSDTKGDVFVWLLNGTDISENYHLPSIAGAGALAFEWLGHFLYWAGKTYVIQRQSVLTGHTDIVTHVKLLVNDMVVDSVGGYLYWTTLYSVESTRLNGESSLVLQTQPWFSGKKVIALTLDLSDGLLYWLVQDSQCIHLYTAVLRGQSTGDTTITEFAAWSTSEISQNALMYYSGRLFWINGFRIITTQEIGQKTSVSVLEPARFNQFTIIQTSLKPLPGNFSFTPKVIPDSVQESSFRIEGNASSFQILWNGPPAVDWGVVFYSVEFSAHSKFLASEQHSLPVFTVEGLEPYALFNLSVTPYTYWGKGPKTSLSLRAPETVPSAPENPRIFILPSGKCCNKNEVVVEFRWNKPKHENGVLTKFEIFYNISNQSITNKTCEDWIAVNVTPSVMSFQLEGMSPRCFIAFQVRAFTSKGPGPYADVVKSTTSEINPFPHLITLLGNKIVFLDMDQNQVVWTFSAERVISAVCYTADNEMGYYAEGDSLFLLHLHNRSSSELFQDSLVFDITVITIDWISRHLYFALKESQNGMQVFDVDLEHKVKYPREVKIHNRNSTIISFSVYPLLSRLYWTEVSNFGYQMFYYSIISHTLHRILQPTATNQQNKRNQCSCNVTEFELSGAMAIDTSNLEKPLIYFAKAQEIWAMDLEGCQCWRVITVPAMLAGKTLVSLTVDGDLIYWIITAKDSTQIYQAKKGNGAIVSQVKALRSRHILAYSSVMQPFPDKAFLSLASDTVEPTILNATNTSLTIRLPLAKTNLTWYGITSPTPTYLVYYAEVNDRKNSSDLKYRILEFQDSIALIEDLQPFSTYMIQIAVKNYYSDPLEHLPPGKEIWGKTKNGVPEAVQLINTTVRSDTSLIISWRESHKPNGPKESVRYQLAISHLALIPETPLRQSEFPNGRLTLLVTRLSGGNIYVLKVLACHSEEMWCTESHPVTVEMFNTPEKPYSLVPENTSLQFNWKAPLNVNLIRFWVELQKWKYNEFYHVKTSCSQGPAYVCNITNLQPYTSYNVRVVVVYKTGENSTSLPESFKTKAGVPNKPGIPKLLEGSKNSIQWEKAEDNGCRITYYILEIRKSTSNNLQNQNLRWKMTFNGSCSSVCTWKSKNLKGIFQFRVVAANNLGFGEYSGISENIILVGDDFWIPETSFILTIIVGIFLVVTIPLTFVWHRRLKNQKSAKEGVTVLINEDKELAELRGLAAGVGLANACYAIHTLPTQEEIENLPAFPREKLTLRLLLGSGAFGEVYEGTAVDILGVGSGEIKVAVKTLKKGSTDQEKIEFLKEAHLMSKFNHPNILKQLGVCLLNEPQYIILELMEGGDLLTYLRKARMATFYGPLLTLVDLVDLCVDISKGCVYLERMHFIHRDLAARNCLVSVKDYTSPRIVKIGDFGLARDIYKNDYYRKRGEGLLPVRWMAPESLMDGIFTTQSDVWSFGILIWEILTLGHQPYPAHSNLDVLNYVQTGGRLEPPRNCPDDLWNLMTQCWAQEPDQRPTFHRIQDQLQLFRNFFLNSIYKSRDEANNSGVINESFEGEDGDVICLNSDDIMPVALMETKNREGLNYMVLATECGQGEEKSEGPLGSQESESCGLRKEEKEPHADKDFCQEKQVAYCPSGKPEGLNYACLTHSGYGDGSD
Procedure: (§1) 1. Preparation of Test Substance:
(§2) A test substance was dissolved in dimethyl sulfoxide (DMSO) to 10 mM and further diluted with DMSO to concentrations of 100-fold of the concentrations to be measured (100, 10, 1, 0.1, and 0.01 μM). Furthermore, the resultant was diluted with an assay buffer to 20-fold, thereby preparing a solution as a test substance solution. A solution prepared by diluting DMSO with an assay buffer to 20-fold was used as a negative control. A buffer containing 15 mM Tris-Cl (pH 7.5), 0.01 (v/v) % Tween-20, and 1 mM dithiothreitol was used as the assay buffer.
(§3) 2. Measurement of ROS Tyrosine Kinase Activity and JAK2 Tyrosine Kinase Activity:
(§4) The activity was measured by adopting the ELISA method. […] Finally, an ROS kinase or a JAK2 kinase (derived from humans, Carna Biosciences, Inc.) (diluted with the assay buffer to 0.25 nM) was added to the plate at 20 μL per well, and the resulting mixture was stirred. A reaction was performed at 30° C. for one hour. After the plate was washed 4 times with a washing buffer (50 mM Tris-Cl (pH 7.5), 150 mM NaCl, and 0.02 (v/v) % Tween-20), a blocking buffer (0.1% bovine serum albumin, 50 mM Tris-Cl (pH 7.5), 150 mM NaCl, and 0.02 (v/v) % Tween-20) was added to the plate at 150 μL per well, and incubated at 30° C. for 30 minutes. The blocking buffer was then removed, and a horse radish peroxidase-labeled anti-phosphorylated tyrosine antibody (BD Biosciences, Inc.) (diluted with the blocking buffer to 10,000-fold) was added to the plate at 100 μL per well, and the plate was incubated at 30° C. for 30 minutes. After the plate was washed 4 times with the washing buffer, a 3,3′,5,5′-tetramethylbenzidine solution (Sigma-Aldrich Co., Ltd.) was added to the plate at 100 μL per well to develop the color for 10 minutes. The reaction was stopped by adding 0.1 M sulfuric acid at 100 μL per well. An absorbance at 450 nm was measured with a microplate reader (Model 3550, manufactured by BIO-RAD, Benchmark, manufactured by BIO-RAD, or iMARK, manufactured by BIO-RAD).
(§5) 3. Analysis of Measurement Results:
(§6) A non-linear regression analysis was performed for the measured absorbance with an SAS system (SAS Institute Inc.), and a concentration of each of the test substances of inhibiting the ROS tyrosine kinase activity or JAK2 tyrosine kinase activity at 50% (IC50) was calculated. The inhibitory activity (IC50, nM) of each of the test substances against the ROS tyrosine kinase or JAK2 tyrosine kinase is shown in Tables 6 to 8.

FIG-ROS/BaF3 cell = target: T2, FIG-ROS/BaF3 cell (Homo sapiens, UniProt P08922); experiment: Proliferation inhibitory activity test against FIG-ROS/BaF3 cell; format: cell-based; conditions: 3 days incubation, cell counting kit; read-out: Proliferation inhibitory activity against FIG-ROS/BaF3 cell (IC50)
T2 construct: fused on or other part: Q9HD26 (Golgi-associated PDZ and coiled-coil motif-containing protein)
T2 sequence (P08922 whole entry, stated change not applied, the tested form may be a part): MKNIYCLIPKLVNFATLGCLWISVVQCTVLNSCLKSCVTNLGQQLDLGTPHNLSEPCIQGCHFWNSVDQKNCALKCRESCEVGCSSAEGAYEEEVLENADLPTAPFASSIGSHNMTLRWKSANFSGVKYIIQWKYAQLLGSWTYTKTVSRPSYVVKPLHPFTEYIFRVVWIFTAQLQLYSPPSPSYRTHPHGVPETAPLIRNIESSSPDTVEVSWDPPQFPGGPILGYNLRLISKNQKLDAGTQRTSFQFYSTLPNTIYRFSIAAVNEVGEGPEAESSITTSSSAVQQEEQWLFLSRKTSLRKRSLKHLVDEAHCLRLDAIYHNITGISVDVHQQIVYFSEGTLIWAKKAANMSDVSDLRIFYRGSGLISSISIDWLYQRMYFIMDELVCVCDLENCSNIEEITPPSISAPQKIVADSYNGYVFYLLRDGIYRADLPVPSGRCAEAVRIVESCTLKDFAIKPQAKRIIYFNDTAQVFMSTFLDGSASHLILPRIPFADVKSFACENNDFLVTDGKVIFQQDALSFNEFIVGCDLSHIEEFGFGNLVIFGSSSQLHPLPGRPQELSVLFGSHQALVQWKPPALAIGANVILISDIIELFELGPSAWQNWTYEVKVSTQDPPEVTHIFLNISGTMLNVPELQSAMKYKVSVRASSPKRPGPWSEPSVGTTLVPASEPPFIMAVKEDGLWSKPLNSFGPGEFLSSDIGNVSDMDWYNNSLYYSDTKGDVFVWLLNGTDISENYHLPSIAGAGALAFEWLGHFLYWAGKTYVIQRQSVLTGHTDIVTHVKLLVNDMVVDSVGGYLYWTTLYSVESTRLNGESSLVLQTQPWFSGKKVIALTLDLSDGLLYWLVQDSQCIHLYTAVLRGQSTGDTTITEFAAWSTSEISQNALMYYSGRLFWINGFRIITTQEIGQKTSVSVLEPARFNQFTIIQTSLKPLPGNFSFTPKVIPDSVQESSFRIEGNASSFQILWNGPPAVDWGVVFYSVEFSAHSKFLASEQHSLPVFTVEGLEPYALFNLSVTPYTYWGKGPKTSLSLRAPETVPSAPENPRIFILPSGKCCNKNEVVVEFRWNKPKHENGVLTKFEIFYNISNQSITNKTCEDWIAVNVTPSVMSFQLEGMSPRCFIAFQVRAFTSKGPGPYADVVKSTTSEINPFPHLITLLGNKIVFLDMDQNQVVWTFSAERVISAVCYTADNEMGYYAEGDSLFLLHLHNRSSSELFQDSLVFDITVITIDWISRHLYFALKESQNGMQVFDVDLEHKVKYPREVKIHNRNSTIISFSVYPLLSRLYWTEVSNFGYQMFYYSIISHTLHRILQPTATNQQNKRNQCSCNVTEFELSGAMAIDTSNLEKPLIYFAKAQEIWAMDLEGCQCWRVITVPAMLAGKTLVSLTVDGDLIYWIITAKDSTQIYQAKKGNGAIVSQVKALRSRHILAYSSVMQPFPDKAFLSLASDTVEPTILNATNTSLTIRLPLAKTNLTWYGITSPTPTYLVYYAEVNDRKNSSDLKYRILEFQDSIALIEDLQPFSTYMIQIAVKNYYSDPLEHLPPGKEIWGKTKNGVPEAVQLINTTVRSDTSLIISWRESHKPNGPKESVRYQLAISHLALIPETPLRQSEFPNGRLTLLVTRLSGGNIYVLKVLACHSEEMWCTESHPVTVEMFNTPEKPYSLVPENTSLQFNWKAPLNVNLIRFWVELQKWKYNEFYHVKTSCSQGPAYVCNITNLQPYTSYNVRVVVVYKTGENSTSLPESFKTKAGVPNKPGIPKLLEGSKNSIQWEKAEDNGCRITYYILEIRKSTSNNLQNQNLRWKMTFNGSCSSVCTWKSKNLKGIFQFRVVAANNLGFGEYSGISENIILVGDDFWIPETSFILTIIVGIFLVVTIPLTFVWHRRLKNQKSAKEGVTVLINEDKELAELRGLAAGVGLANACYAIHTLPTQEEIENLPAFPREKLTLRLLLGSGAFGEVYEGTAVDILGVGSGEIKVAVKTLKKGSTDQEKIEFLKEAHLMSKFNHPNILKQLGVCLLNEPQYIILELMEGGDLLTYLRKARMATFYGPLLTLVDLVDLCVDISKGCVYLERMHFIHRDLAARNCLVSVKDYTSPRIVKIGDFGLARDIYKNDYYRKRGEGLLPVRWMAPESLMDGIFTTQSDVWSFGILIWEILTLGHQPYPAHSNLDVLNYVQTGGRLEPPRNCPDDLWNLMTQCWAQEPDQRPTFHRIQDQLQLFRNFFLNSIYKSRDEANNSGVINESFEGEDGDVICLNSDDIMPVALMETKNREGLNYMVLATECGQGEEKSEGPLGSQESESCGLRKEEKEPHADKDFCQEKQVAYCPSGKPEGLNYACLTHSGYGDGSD
Procedure: A BaF3 cell which had been transformed by introducing the FIG-ROS fusion gene (derived from U118MG human glioma cell) (FIG-ROS/BaF3 Cell) was prepared on a culture medium, seeded on a 96-well plate in the number of 1×10^3/100 μL per well, and then allowed to stand in a CO2 incubator (at 37° C. and 5% CO2). As the culture medium, 10% FBS (fetal bovine serum)-incorporated RPMI-1640 was used.
2. Proliferation Inhibitory Activity Test:
A test substance was dissolved in dimethyl sulfoxide (DMSO) to 10 mM and further diluted with DMSO to 100-fold to prepare a 100 μM solution. This was diluted with a 1% DMSO-incorporated medium to concentrations of 10-fold of the concentration to be measured (10,000, 1,000, 100, 10, and 1 nM). Each of the medicine solutions was added at 11 μL per well and mixed. To a control having no medicine added thereto, a 1% DMSO-incorporated medium was added, and incubated in a CO2 incubator (at 37° C. and 5% CO2) for 3 days. After completion of the incubation, the number of live cells was counted using a cell counting kit. First of all, each cell counting kit solution was added at 5 μL per well and mixed, and incubated in a CO2 incubator (at 37° C. and 5% CO2) for 4 hours. An absorbance at 450 nm was measured with a microplate reader (Model 3550, manufactured by BIO-RAD, Benchmark, manufactured by BIO-RAD, or iMARK, manufactured by BIO-RAD) with a reference wavelength of 650 nm.
as §5
A non-linear regression analysis was performed for the measured absorbance with an SAS system (SAS Institute Inc.), and a concentration of each of the test substances of inhibiting the cell proliferation at 50% (IC50) was calculated. The proliferation inhibitory activity (IC50, nM) of each of the test substances against the FIG-ROS/BaF3 cell is shown in Table 9.

JAK2 tyrosine kinase = target: T3, JAK2 tyrosine kinase (Homo sapiens, UniProt O60674); experiment: JAK2 tyrosine kinase inhibitory activity test (ELISA); format: biochemical, humans; conditions: 25 μM ATP substrate solution, 30° C., one hour
T3 construct: purchased Carna Biosciences, Inc
Procedure: as §1, §2, §3, §4, §5, §6

Row | IC50 (ROS tyrosine kinase) [nM] | GI50 (FIG-ROS/BaF3 cell) [nM] | IC50 (JAK2 tyrosine kinase) [nM] | SMILES
1 | 16 | 20 | > 1000 | COc1ccc(-c2nc(N3CCCC3c3ccc(C)cc3)nc(Nc3ncc(C#N)s3)c2C)cn1 (stereo not drawn) [Example 15, 2-({6-(6-Methoxypyridin-3-yl)-5-methyl-2-[2-(4-methylphenyl)pyrrolidin-1-yl]pyrimidin-4-yl}amino)-1,3-thiazole-5-carbonitrile]
2 | 2.6 | 2.9 | 220 | COc1cnc(N2CCCC2c2ccc(C)cc2)nc1Nc1ncc(C#N)s1 (stereo not drawn) [Example 19, 2-({5-Methoxy-2-[2-(4-methylphenyl)pyrrolidin-1-yl]pyrimidin-4-yl}amino)-1,3-thiazole-5-carbonitrile]
3 | 12 | 10 | > 1000 | N#Cc1cnc(Nc2nc(N3CCCC3c3ccc(F)cc3)cnc2-c2ccncc2)s1 (stereo not drawn) [Example 26, 2-({6-[2-(4-Fluorophenyl)pyrrolidin-1-yl]-3-(pyridin-4-yl)pyrazin-2-yl}amino)-1,3-thiazole-5-carbonitrile]
4 | 65 | 27 | > 1000 | Cc1ccc(C2CCCN2c2cc(C(F)(F)F)cc(Nc3ncc(C#N)s3)n2)cc1 (stereo not drawn) [Example 27, 2-({6-[2-(4-Methylphenyl)pyrrolidin-1-yl]-4-(trifluoromethyl)pyridin-2-yl}amino)-1,3-thiazole-5-carbonitrile]
5 | 1.3 | 4.3 | 140 | Cc1ccc([C@@H]2CCCN2c2cnc(C)c(Nc3ncc(C)s3)n2)cc1 [Example 29, 3-Methyl-6-[(2S)-2-(4-methylphenyl)pyrrolidin-1-yl]-N-(5-methyl-1,3-thiazol-2-yl)pyrazine-2-amine]
6 | 4.4 | 33 | > 1000 | COc1cc(OC)cc(C2CCCN2c2cncc(Nc3ncc(C#N)s3)n2)c1 (stereo not drawn) [Example 32, 2-({6-[2-(3,5-Dimethoxyphenyl)pyrrolidin-1-yl]pyrazin-2-yl}amino)-1,3-thiazol-5-carbonitrile]
7 | 4.1 | 12 | > 1000 | Cc1ccc([C@@H]2CCCN2c2cnc(C3CC3)c(Nc3ncc(C)s3)n2)cc1 [Example 34, 3-Cyclopropyl-6-[(2S)-2-(4-methylphenyl)pyrrolidin-1-yl]-N-(5-methyl-1,3-thiazol-2-yl)pyrazine-2-amine]
8 | 12 | 4.5 | > 1000 | N#Cc1cnc(Nc2cncc(N3CCCC3c3ccc(C(F)(F)F)cc3)n2)s1 (stereo not drawn) [Example 39, 2-[(6-{2-[4-(Trifluoromethyl)phenyl]pyrrolidin-1-yl}pyrazin-2-yl)amino]-1,3-thiazole-5-carbonitrile]
9 | 4.2 | 2.1 | > 1000 | Cc1ccc(C2CCCN2c2nc(Nc3ncc(C#N)s3)c(C)nc2C)cc1 (stereo not drawn) [Example 43, 2-({3,5-Dimethyl-6-[2-(4-methylphenyl)pyrrolidin-1-yl]pyrazin-2-yl}amino)-1,3-thiazole-5-carbonitrile]
10 | 7.3 | 7.6 | 210 | CCc1cnc(Nc2cncc(N3CCCC3c3ccc(C)cc3)n2)s1 (stereo not drawn) [Example 45, N-(5-Ethyl-1,3-thiazol-2-yl)-6-[2-(4-methylphenyl)pyrrolidin-1-yl]pyrazine-2-amine]
11 | 0.6 | 1.9 | 31 | N#Cc1cnc(Nc2cncc(N3CCCC3c3ccc(Cl)cc3)n2)s1 (stereo not drawn) [Example 48, 2-({6-[2-(4-Chlorophenyl)pyrrolidin-1-yl]pyrazin-2-yl}amino)-1,3-thiazole-5-carbonitrile]
12 | 12 | 9.4 | ≥ 1000 | COc1c(Nc2ncc(C#N)s2)nc(N2CCCC2c2ccc(C)cc2)nc1-c1ccc(F)nc1 (stereo not drawn) [Example 50, 2-({6-(6-Fluoropyridin-3-yl)-5-methoxy-2-[2-(4-methylphenyl)pyrrolidin-1-yl]pyrimidin-4-yl}amino)-1,3-thiazole-5-carbonitrile]

Continued, compound first:

Row | SMILES | IC50 (ROS tyrosine kinase) [nM] | GI50 (FIG-ROS/BaF3 cell) [nM] | IC50 (JAK2 tyrosine kinase) [nM]
13 | Cc1ccc([C@@H]2CCCN2c2cncc(Nc3ncc(C#N)s3)n2)cc1 [Example 1, 2-({6-[(2S)-2-(4-Methylphenyl)pyrrolidin-1-yl]pyrazin-2-yl}amino)-1,3-thiazole-5-carbonitrile hydrochloride] | 1.6 | 2.2 | 76
14 | COc1c(Nc2ncc(C#N)s2)nc(N2CCCC2c2ccc(C)cc2)nc1-c1ccc(C(N)=O)cc1 (stereo not drawn) [Example 4, 4-{6-[(5-Cyano-1,3-thiazol-2-yl)amino]-5-methoxy-2-[2-(4-methylphenyl)pyrrolidin-1-yl]pyrimidin-4-yl}benzamide] | 35 | 2.6 | > 1000
15 | COC(=O)c1cc(Nc2ncc(C#N)s2)nc(N2CCCC2c2ccc(C)cc2)n1 (stereo not drawn) [Example 6, Methyl 6-[(5-cyano-1,3-thiazol-2-yl)amino]-2-[2-(4-methylphenyl)pyrrolidin-1-yl]pyrimidine-4-carboxylate] | 7.1 | 23 | 92
16 | Cc1ccc(C2CCCN2c2nc(Nc3ncc(C#N)s3)cc(C(=O)O)n2)cc1 (stereo not drawn) [Example 7, 6-[(5-Cyano-1,3-thiazol-2-yl)amino]-2-[2-(4-methylphenyl)pyrrolidin-1-yl]pyrimidine-4-carboxylic acid] | 0.6 | 83 | 37
17 | COc1c(C)nc(N2CCC[C@H]2c2ccc(C)cc2)nc1Nc1ncc(C#N)s1 [Example 9, 2-({5-Methoxy-6-methyl-2-[(2S)-2-(4-methylphenyl)pyrrolidin-1-yl]pyrimidin-4-yl}amino)-1,3-thiazole-5-carbonitrile maleate] | 0.6 | 2.1 | 500
18 | COc1c(Nc2ncc(C#N)s2)nc(N2CCCC2c2ccc(C)cc2)nc1-c1cnco1 (stereo not drawn) [Example 11, 2-({5-Methoxy-2-[2-(4-methylphenyl)pyrrolidin-1-yl]-6-(1,3-oxazol-5-yl)pyrimidin-4-yl}amino)-1,3-thiazole-5-carbonitrile] | 2.7 | 2.2 | > 1000
19 | Cc1ccc(C2CCCN2c2nc(Nc3ncc(C#N)s3)cc(C(=O)N[C@H](C)CO)n2)cc1 (stereo partly drawn) [Example 12, 6-[(5-Cyano-1,3-thiazol-2-yl)amino]-N-[(2R)-1-hydroxypropan-2-yl]-2-[2-(4-methylphenyl)pyrrolidin-1-yl]pyrimidine-4-carboxamide] | 21 | 24 | 540
20 | COc1c(Nc2ncc(C#N)s2)nc(N2CCCC2c2ccc(C)cc2)nc1-c1ccc(S(C)(=O)=O)cc1 (stereo not drawn) [Example 13, 2-({5-Methoxy-2-[2-(4-methylphenyl)pyrrolidin-1-yl]-6-[4-(methylsulfonyl)phenyl]pyrimidin-4-yl}amino)-1,3-thiazole-5-carbonitrile] | 44 | 3.5 | ≥ 1000
